Values quoted from earlier work in patent publication US20100209503A1, “Bitter Taste Masking Dosage Form” (priority 2005, published 2010).
Where a name gives a salt, the structure may show the parent alone.

Conditions: expression of General Notices of Japanese Pharmacopoeia 14th revision

Structure (SMILES)	solubility in water
Cc1c(C(C)C)c(=O)n(-c2ccccc2)n1C [isopropylantipyrine]	hardly soluble (not less than 0.001 g/mL and less than 0.01 g/mL)
NC(=O)c1cccnc1 [nicotinic acid amide]	easily soluble (not less than 0.1 g/mL and less than 1.0 g/mL)
CN(C)C(=O)c1nc(CNC(=O)CN)n(-c2ccc(Cl)cc2C(=O)c2ccccc2Cl)n1 [rilmazafone hydrochloride]	slightly soluble (not less than 0.033 g/mL and less than 0.1 g/mL)
